Assay results as given in the supplement of paper PMC10307832.

What was measured:
Test in all cases: relative viability (nuclei count vs DMSO), 5 days (fraction); higher = more cells survive
NCI-H1437 = system: NCI-H1437
Outline: (§1)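 Lung cancer cell lines in 1536-well plates got either a single drug or a fixed anchor-drug dose together with five library-drug doses (not always all listed) in √10 steps, by pin tool, on the day after seeding. Nuclei were counted after 5 days, and relative viability is the treated-to-vehicle ratio of nuclei counts. Values are medians of duplicate plates.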

A549 = system: A549
Outline: as §1

Calu-6 = system: Calu-6
Outline: as §1

IA-LM = system: IA-LM
Outline: as §1

NCI-H1703 = system: NCI-H1703
Outline: as §1

NCI-H1355 = system: NCI-H1355
Outline: as §1

LCLC-97TM1 = system: LCLC-97TM1
Outline: as §1

NCI-H596 = system: NCI-H596
Outline: as §1

EBC-1 = system: EBC-1
Outline: as §1

NCI-H1299 = system: NCI-H1299
Outline: as §1

CCNC(=O)c1noc(-c2cc(C(C)C)c(O)cc2O)c1-c1ccc(CN2CCOCC2)cc1 [Luminespib] + C[C@@H](Oc1cc(-c2cnn(C3CCNCC3)c2)cnc1N)c1c(Cl)ccc(F)c1Cl [Crizotinib] (partner 1 µM)
relative viability (NCI-H1437; first compound 0.002 µM): 0.92 | relative viability (NCI-H1437; first compound 0.006325 µM): 0.833 | relative viability (NCI-H1437; first compound 0.02 µM): 1.05 | relative viability (NCI-H1437; first compound 0.06325 µM): 0.83 | relative viability (NCI-H1437; first compound 0.2 µM): 0.478 | relative viability (A549; first compound 0.002 µM): 0.861 | relative viability (A549; first compound 0.006325 µM): 0.593 | relative viability (A549; first compound 0.02 µM): 0.51 | relative viability (A549; first compound 0.06325 µM): 0.0411 | relative viability (A549; first compound 0.2 µM): 0.0426 | relative viability (Calu-6; first compound 0.002 µM): 0.793 | relative viability (Calu-6; first compound 0.006325 µM): 0.88 | relative viability (Calu-6; first compound 0.02 µM): 1.01 | relative viability (Calu-6; first compound 0.06325 µM): 0.109 | relative viability (Calu-6; first compound 0.2 µM): 0.097 | relative viability (IA-LM; first compound 0.002 µM): 0.753 | relative viability (IA-LM; first compound 0.006325 µM): 0.848 | relative viability (IA-LM; first compound 0.02 µM): 1 | relative viability (IA-LM; first compound 0.06325 µM): 0.0538 | relative viability (IA-LM; first compound 0.2 µM): 0.04 | relative viability (NCI-H1703; first compound 0.002 µM): 0.806 | relative viability (NCI-H1703; first compound 0.006325 µM): 0.653 | relative viability (NCI-H1703; first compound 0.02 µM): 0.367 | relative viability (NCI-H1703; first compound 0.06325 µM): 0.119 | relative viability (NCI-H1703; first compound 0.2 µM): 0.0858 | relative viability (NCI-H1355; first compound 0.002 µM): 1.1 | relative viability (NCI-H1355; first compound 0.006325 µM): 1.05 | relative viability (NCI-H1355; first compound 0.02 µM): 0.62 | relative viability (NCI-H1355; first compound 0.06325 µM): 1.08 | relative viability (NCI-H1355; first compound 0.2 µM): 1.08 | relative viability (LCLC-97TM1; first compound 0.002 µM): 0.417 | relative viability (LCLC-97TM1; first compound 0.006325 µM): 0.461 | relative viability (LCLC-97TM1; first compound 0.02 µM): 0.157 | relative viability (LCLC-97TM1; first compound 0.06325 µM): 0.221 | relative viability (LCLC-97TM1; first compound 0.2 µM): 0.22 | relative viability (NCI-H596; first compound 0.002 µM): 1.05 | relative viability (NCI-H596; first compound 0.006325 µM): 1 | relative viability (NCI-H596; first compound 0.06325 µM): 0.851 | relative viability (NCI-H596; first compound 0.2 µM): 0.938 | relative viability (EBC-1; first compound 0.002 µM): 0.196 | relative viability (EBC-1; first compound 0.006325 µM): 0.195 | relative viability (EBC-1; first compound 0.02 µM): 0.179 | relative viability (EBC-1; first compound 0.06325 µM): 0.173 | relative viability (EBC-1; first compound 0.2 µM): 0.165 | relative viability (NCI-H1299; first compound 0.002 µM): 0.953 | relative viability (NCI-H1299; first compound 0.006325 µM): 0.953 | relative viability (NCI-H1299; first compound 0.02 µM): 1.01 | relative viability (NCI-H1299; first compound 0.06325 µM): 0.915 | relative viability (NCI-H1299; first compound 0.2 µM): 0.229

Cc1csc(=NC2CCCCC2)n1/N=C/c1ccc(O)c(O)c1O [MIM1] + C[C@]1(O)C[C@@H](c2nc(-c3ccc4ccc(-c5ccccc5)nc4c3)c3c(N)nccn32)C1 [Linsitinib] (partner 1 µM)
relative viability (NCI-H1437; first compound 0.2 µM): 0.967 | relative viability (NCI-H1437; first compound 0.6325 µM): 0.985 | relative viability (NCI-H1437; first compound 2 µM): 1.05 | relative viability (NCI-H1437; first compound 6.325 µM): 0.507 | relative viability (NCI-H1437; first compound 20 µM): 0.151 | relative viability (A549; first compound 0.2 µM): 0.564 | relative viability (A549; first compound 0.6325 µM): 0.638 | relative viability (A549; first compound 2 µM): 0.618 | relative viability (A549; first compound 6.325 µM): 0.504 | relative viability (A549; first compound 20 µM): 0.515 | relative viability (Calu-6; first compound 0.6325 µM): 0.918 | relative viability (Calu-6; first compound 2 µM): 0.897 | relative viability (Calu-6; first compound 6.325 µM): 0.561 | relative viability (Calu-6; first compound 20 µM): 0.286 | relative viability (IA-LM; first compound 0.2 µM): 0.563 | relative viability (IA-LM; first compound 0.6325 µM): 0.36 | relative viability (IA-LM; first compound 2 µM): 0.502 | relative viability (IA-LM; first compound 6.325 µM): 0.0829 | relative viability (IA-LM; first compound 20 µM): 0.105 | relative viability (NCI-H1703; first compound 0.2 µM): 0.759 | relative viability (NCI-H1703; first compound 0.6325 µM): 1.31 | relative viability (NCI-H1703; first compound 2 µM): 0.701 | relative viability (NCI-H1703; first compound 6.325 µM): 0.144 | relative viability (NCI-H1703; first compound 20 µM): 0.095 | relative viability (NCI-H1355; first compound 0.2 µM): 0.812 | relative viability (NCI-H1355; first compound 0.6325 µM): 0.882 | relative viability (NCI-H1355; first compound 2 µM): 0.898 | relative viability (NCI-H1355; first compound 6.325 µM): 0.74 | relative viability (NCI-H1355; first compound 20 µM): 0.879 | relative viability (LCLC-97TM1; first compound 0.2 µM): 0.171 | relative viability (LCLC-97TM1; first compound 0.6325 µM): 0.226 | relative viability (LCLC-97TM1; first compound 2 µM): 0.166 | relative viability (LCLC-97TM1; first compound 6.325 µM): 0.207 | relative viability (LCLC-97TM1; first compound 20 µM): 0.214 | relative viability (NCI-H596; first compound 0.2 µM): 0.989 | relative viability (NCI-H596; first compound 0.6325 µM): 0.989 | relative viability (NCI-H596; first compound 2 µM): 0.991 | relative viability (NCI-H596; first compound 6.325 µM): 0.857 | relative viability (NCI-H596; first compound 20 µM): 0.871 | relative viability (EBC-1; first compound 0.2 µM): 0.921 | relative viability (EBC-1; first compound 0.6325 µM): 0.829 | relative viability (EBC-1; first compound 2 µM): 0.871 | relative viability (EBC-1; first compound 6.325 µM): 0.605 | relative viability (EBC-1; first compound 20 µM): 0.318 | relative viability (NCI-H1299; first compound 0.2 µM): 0.98 | relative viability (NCI-H1299; first compound 0.6325 µM): 0.93 | relative viability (NCI-H1299; first compound 2 µM): 0.963 | relative viability (NCI-H1299; first compound 6.325 µM): 0.919 | relative viability (NCI-H1299; first compound 20 µM): 0.667
